Patent US5962314A, “Calcium receptor-active molecules” (priority 1997, dated 1999)
Entries after “also recorded” stand apart in the source; their conditions may differ. Where two headings read alike, the source gives them in different places.

Key:
Format in all cases: cell-based
C-cell calcium receptor = target: T1, C-cell calcium receptor (Rattus norvegicus, UniProt P48442)
T1 construct: Neoplastic C-cells derived from a rat medullary thyroid carcinoma (rMTC 6-23); host or cells: rMTC 6-23 cells
T1 sequence (P48442 20-1079): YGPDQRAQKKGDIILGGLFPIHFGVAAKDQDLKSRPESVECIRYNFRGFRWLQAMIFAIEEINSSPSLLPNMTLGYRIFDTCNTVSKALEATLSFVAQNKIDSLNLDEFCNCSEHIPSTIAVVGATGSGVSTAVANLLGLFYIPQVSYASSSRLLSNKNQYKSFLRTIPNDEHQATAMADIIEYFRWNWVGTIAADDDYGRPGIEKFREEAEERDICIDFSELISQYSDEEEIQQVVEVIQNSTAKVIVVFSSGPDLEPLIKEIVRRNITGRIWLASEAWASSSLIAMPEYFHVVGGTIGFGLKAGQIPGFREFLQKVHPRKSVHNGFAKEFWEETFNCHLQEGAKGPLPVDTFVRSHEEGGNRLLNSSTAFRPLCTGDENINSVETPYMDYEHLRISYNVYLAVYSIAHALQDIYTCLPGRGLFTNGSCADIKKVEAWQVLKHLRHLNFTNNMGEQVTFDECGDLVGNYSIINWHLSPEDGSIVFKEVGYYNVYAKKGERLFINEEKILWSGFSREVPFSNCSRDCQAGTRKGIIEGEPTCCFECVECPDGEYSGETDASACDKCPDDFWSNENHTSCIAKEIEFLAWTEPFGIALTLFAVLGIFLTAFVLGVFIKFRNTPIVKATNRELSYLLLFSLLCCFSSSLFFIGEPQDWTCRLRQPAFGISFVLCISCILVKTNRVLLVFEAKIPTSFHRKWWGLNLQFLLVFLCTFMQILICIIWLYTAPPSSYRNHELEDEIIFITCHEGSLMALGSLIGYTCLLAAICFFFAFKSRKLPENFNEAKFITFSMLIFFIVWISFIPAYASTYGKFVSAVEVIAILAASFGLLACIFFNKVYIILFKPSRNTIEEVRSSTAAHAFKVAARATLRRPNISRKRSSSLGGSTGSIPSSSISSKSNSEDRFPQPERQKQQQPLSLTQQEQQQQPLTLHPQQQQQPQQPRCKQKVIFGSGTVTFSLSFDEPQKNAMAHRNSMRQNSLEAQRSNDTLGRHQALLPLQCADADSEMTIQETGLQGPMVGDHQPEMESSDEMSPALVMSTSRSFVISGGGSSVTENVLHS
Description: To assess the effects of molecular polycations on C-cells, a neoplastic cell line, derived from a rat medullary thyroid carcinoma (rMTC 6-23 cells) was used.

[1] = target: T2, bovine parathyroid cell calcium receptor (Bos taurus, UniProt P35384); test: Cl- current in Xenopus oocytes expressing BoPCaR 1; details: for effect on Cl- current: BoPCaR 1-injected oocytes; for effect in control oocytes: uninjected, water or rat liver mRNA oocytes
T2 construct: expressed in transfected cells; host or cells: Xenopus laevis oocytes injected with BoPCaR 1 cRNA
T2 sequence (P35384 20-1085): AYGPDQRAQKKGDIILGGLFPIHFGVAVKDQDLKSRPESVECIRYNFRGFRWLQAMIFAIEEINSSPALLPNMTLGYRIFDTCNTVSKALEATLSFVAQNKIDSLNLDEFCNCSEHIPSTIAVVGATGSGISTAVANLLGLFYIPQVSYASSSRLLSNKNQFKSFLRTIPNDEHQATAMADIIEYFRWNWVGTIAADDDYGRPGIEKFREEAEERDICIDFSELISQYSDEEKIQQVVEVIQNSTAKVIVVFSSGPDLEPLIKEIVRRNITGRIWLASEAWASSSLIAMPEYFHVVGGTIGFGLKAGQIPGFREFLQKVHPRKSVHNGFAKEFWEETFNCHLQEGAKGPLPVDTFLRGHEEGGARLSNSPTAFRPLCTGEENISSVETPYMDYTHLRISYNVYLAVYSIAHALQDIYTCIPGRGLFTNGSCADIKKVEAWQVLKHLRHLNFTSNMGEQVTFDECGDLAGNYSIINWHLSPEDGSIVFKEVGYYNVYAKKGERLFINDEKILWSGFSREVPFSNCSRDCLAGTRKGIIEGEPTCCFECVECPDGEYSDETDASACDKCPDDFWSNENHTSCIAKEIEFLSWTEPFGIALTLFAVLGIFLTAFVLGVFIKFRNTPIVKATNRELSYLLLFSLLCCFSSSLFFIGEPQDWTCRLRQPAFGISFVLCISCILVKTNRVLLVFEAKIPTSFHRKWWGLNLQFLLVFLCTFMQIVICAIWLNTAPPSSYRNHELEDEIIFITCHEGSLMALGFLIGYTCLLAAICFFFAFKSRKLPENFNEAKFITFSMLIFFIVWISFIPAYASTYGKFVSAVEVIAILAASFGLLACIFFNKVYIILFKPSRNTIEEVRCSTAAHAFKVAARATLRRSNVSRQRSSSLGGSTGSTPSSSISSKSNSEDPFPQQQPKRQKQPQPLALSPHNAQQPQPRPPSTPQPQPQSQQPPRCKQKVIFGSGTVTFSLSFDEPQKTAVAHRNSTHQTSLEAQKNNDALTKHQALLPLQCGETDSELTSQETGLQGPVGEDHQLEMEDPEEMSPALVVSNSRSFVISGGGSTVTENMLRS
Description: Several pharmacological and biochemical criteria were used to identify this clone as encoding a bona fide bovine parathyroid Ca^2+ receptor. […] These responses increased markedly over a period of one to four days after injection of the eggs with cRNA prepared from the BoPCaR 1 cDNA. Furthermore, the ranges of the concentrations of the two cations eliciting this response were very similar to those shown previously to act on bovine parathyroid cells in vitro.
Xenopus oocytes were injected with BoPCaR 1, the 5.3 Kb cDNA encoding a bovine parathyroid cell calcium receptor as described in Example 25. After two to three days, Cl^- currents were examined in the oocytes using a two-electrode voltage clamp.
Xenopus oocytes were injected with BoPCaR 1 as described in Example 25. After two to three days, Cl^- currents were examined in the oocytes using two electrode voltage clamp.

[2] = target: T3, parathyroid cell calcium receptor (Bos taurus, UniProt P35384); test: cell-based
T3 sequence (P35384 20-1085): T2 sequence (P35384 20-1085)
Description: For example,. bovine parathyroid cells loaded with fura-2 are initially suspended in buffer containing 0.5 mM CaCl2. A test substance is added to the cuvette in a small volume (5-15 μl) and changes in the fluorescence signal are measured. Cumulative increases in the concentration of the test substance are made in the cuvette until some predetermined concentration is achieved or no further changes in fluorescence are noted.
Human parathyroid glands, were obtained from patients undergoing surgical removal of parathyroid tissue for primary or uremic hyperparathyroidism (uremic HPT), and were treated similarly to bovine tissue.
The cells were then pelleted, resuspended in the same buffer, but lacking the ester, and incubated a further 15 minutes at 37° C. The cells were subsequently washed twice with PCB containing 0.5 mM CaCl2 and 0.5% BSA and maintained at room temperature (about 20° C.). Immediately before use, the cells were diluted five-fold with prewarmed 0.5 mM CaCl2 -PCB to obtain a final BSA concentration of 0.1%. The concentration of cells in the cuvette used for fluorescence recording was 1-2×10^6 /ml.
The fluorescence of indicator-loaded cells was measured at 37° C. in a spectrofluorimeter (Biomedical Instrumentation Group, University of Pennsylvania, Philadelphia, Pa.) equipped with a thermostated cuvette holder and magnetic stirrer using excitation and emission wavelengths of 340 and 510 nm, respectively. […] Leakage of dye is dependent on temperature and most occurs within the first 2 minutes after warming the cells in the cuvette. Dye leakage increases only very slowly thereafter. To correct the calibration for dye leakage, cells were placed in the cuvette and stirred at 37° C. for 2-3 minutes. The cell suspension was then removed, the cells pelleted, and the supernatant returned to a clean cuvette. […] This estimate was subtracted from the apparent Fmin.

| SMILES | effect on [Ca2+]i in C-cells (C-cell calcium receptor) | effect on Cl- current [1] | effect on Cl- current in absence of extracellular Ca2+ [1] | effect in control oocytes [1] | effect on extracellular Ca2+ concentration-response curve [1] | effect on [Ca2+]i [2] | effect on response to extracellular Ca2+ [2] | effect on [Ca2+]i in absence of extracellular Ca2+ ([2]; Ca2+-free buffer) | effective concentration range, Cl- current ([1]; BoPCaR 1 oocytes) [µM] | effect on [Ca2+]i ([2]; 10 μM, Ca2+-free) | effect on [Ca2+]i ([2]; 100 μM, Ca2+-free) | effect on extracellular Ca2+-evoked increases in [Ca2+]i ([2]; neomycin B 30 μM / maximally effective concentration) | effect on intracellular Ca2+ ([2]; neomycin B 30 μM, protamine 1 μg/ml) |
| --- | --- | --- | --- | --- | --- | --- | --- | --- | --- | --- | --- | --- | --- |
| NCCCNCCCCNCCCNCCCNCCCNC(=O)Cc1c[nH]c2ccccc12 [NPS 019] | mobilization of intracellular Ca^2+ | caused oscillatory increases in the Cl^- | persisted in the absence of extracellular Ca^2+ | Neither NPS 017 nor NPS 019 elicited changes in Cl^- | – | – | – | – | – | – | – | – | – |
| COc1cccc([C@@H](C)NCCCc2ccccc2Cl)c1 [NPS R-568, (R)-(+)-N-[3-(2-chlorophenyl)propyl]-α-methyl-3-methoxybenzylamine] | – | caused increases in the Cl^- | abolished in the absence of extracellular Ca^2+ | failed to evoke responses | potentiated the responses to submaximal concentrations of extracellular Ca^2+; also recorded: shift the extracellular Ca^2+ concentration-response curve to the left | evokes increases in [Ca^2+ ]i in bovine parathyroid cells in a stereospecific manner | shifts the concentration-response curve for extracellular Ca^2+; also recorded: shift to the left in the concentration-response curve for extracellular Ca^2+ | fails to evoke increases in [Ca^2+ ]i; also recorded: do not cause the mobilization of intracellular Ca^2+ | – | – | – | – | – |
| NC[C@@H]1O[C@H](O[C@H]2[C@@H](O)[C@H](O[C@@H]3[C@@H](O)[C@H](N)C[C@H](N)[C@H]3O[C@H]3O[C@H](CN)[C@@H](O)[C@H](O)[C@H]3N)O[C@@H]2CO)[C@H](N)[C@@H](O)[C@@H]1O [Neomycin] | fails to affect basal or evoked increases in C-cells; also recorded: without effect on basal [Ca^2+ ]i; also recorded: fail to affect the calcium receptors on C-cells or osteoclasts | large inward currents | persist despite removal of extracellular Ca^2+ | – | – | evoked rapid and transient increases in [Ca^2+ ]i | – | – | 20 to 100 | did not by itself cause an increase in [Ca^2+ ]i | evoked a rapid and transient increase in [Ca^2+ ]i | blocks transient, but does not block steady-state increases in [Ca^2+ ]i; also recorded: blocked transient, but not steady-state increases in [Ca^2+ ]i | mobilization of intracellular Ca^2+ |
